Consider eight molecules from US9000010B2, “Alkyl-heterocycle carbamate derivatives, their preparation and their therapeutic application” (Sanofi, priority 2010, dated 2015).

In data set [1] the target is T1, FAAH (Fatty Acid Amide Hydrolase) (Mus musculus, UniProt O08914).
T1 construct: The membrane homogenates are prepared at the time of use by homogenization of the tissues; from tissue; host or cells: mouse brain (minus the cerebellum), membrane homogenate
T1 sequence (O08914 1-579): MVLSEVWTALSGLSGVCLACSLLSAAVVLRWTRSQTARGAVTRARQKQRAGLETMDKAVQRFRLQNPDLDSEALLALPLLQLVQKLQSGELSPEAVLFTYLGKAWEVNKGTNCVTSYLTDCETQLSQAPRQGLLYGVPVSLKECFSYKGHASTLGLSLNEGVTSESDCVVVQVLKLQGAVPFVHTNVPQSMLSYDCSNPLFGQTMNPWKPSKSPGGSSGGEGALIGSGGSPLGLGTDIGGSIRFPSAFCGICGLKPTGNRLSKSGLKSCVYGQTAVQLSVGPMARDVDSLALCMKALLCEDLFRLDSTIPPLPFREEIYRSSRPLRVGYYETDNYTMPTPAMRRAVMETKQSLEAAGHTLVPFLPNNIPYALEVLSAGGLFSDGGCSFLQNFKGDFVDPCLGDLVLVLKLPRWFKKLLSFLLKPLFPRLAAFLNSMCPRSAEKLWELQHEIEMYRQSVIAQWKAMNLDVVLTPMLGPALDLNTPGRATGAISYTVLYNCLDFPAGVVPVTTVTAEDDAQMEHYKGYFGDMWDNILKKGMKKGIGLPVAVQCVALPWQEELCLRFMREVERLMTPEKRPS
In words: Radioenzymatic test of FAAH inhibition: hydrolysis of anandamide [ethanolamine 1-3H] by mouse brain membrane homogenates. Type of data set: biochemical. The settings on record: mouse brain membrane homogenate; preincubation 20 min at 25° C.; anandamide 10 μM; read-out: CI50 (concentration which inhibits the control enzymatic activity of FAAH by 50%). Here is the method:
The compounds of the invention form the subject of pharmacological trials which make it possible to determine their inhibitory effect on the enzyme FAAH (Fatty Acid Amide Hydrolase).
Thus, mouse brains (minus the cerebellum) are removed and stored at −80° C. The membrane homogenates are prepared at the time of use by homogenization of the tissues using a Precellys® device in the reaction buffer (Tris-HCl 10 mM pH=8, NaCl 150 mM and ethylenediaminetetraacetic acid (EDTA) 1 mM). The enzymatic reaction is carried out in 96-well MultiScreen filtration plates in a final volume of 70 μl. Reaction buffer supplemented with bovine serum albumin free from fatty acids (BSA, 1 mg/ml) is used for the enzymatic reaction, the dilution of the compounds and the dilution of the anandamide [ethanolamine 1-^3H]. Reaction buffer comprising the BSA (43 μl/well), the diluted test compounds at different concentrations (7 μl/well comprising 1% of DMSO) and the membrane preparation (10 μl/well, i.e. 200 μg of tissue per trial) are successively added to the wells. After preincubating the compounds with the enzyme at 25° C. for 20 minutes, the reaction is initiated by the addition of anandamide [ethanolamine 1-^3H] (specific activity of 15-20 Ci/mmol) diluted with cold anandamide (10 μl/well, final concentration of 10 μM, 0.01 μCi, per trial). After incubating at 25° C. for 20 minutes, the enzymatic reaction is halted by addition of a […] active charcoal solution prepared in a 1.5M NaCl and 0.5M HCl buffer (50 μl/well). The mixture is stirred for 10 minutes and then the aqueous phase comprising the [1-^3H]ethanolamine is recovered by filtration under vacuum and counted by liquid scintillation.

SMILES strings stand for the structures.

The melting point is the temperature of the solid-liquid transition. For `O=C(OCc1cscn1)N1CCC(COc2cnc3ccccc3c2)C1` (racemic) [No. 26, Thiazol-4-ylmethyl (+/−)-3-(quinolin-3-yloxymethyl)-pyrrolidine-1-carboxylate], the melting point fell in the range of 83 to 85 °C. In addition, in data set [1], the IC50 worked out at 86 nM.
With `O=C(OCc1nccs1)N1CCC(COc2ccc3c(Cl)cccc3c2)C1` (racemic) [No. 196, Thiazol-2-ylmethyl (+/−)-3-(5-chloronaphth-2-yloxymethyl)pyrrolidine-1-carboxylate], the melting point lay within 100 to 102 °C. In data set [1], the IC50 stood at 252 nM.
On the same counts, the results for `NC(=O)c1cc(COC(=O)N2CC[C@@H](COc3ccc4ccccc4c3)C2)on1` (single isomer, unassigned) [No. 200] are 138 to 140 °C and 122 nM.
On the same counts, the results for `NC(=O)c1cc(COC(=O)N2CC[C@H](COc3ccc4ccccc4c3)C2)on1` (single isomer, unassigned) [No. 202] are 139 to 141 °C and 8 nM.
Regarding `O=C(OCc1nccs1)N1CCC(CCOc2ccc(Cc3ccccc3)cc2)CC1` [No. 49, Thiazol-2-ylmethyl 4-[2-(4-benzylphenoxy)ethyl]-piperidine-1-carboxylate], the IC50 in data set [1] amounted to 19 nM.
Same read-out and setting: then `CCCCOc1cccc(OCCC2CCN(C(=O)OCc3nccs3)CC2)c1` [No. 60, Thiazol-2-ylmethyl 4-[2-(3-butoxyphenoxy)ethyl]-piperidine-1-carboxylate], with 95 nM; and `CCCCOc1cccc(OCCC2CCN(C(=O)OCc3cscn3)CC2)c1` [No. 90, Thiazol-4-ylmethyl 4-[2-(3-butoxyphenoxy)ethyl]-piperidine-1-carboxylate], with 92 nM.
In turn, `NC(=O)c1cc(COC(=O)N2CCC(CCOc3ccc(OC(F)(F)F)cc3)CC2)on1` [No. 199, 3-Carbamoylisoxazol-5-ylmethyl 4-[2-(4-{trifluoromethoxy}phenoxy)ethyl]piperidine-1-carboxylate] had a melting point of 112 to 115 °C. Also, in data set [1], the IC50 came to 350 nM.
